Data reported in the supplement of paper PMC8253809.

Assays:
DIPGX29 [1] = H3.3 K27M diffuse intrinsic pontine glioma line; experiment: EC50 (inflection of fitted growth-inhibition curve) (log10 M)
Procedure, shortened: (§1)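 Patient-derived pHGG/DIPG cell lines and astrocyte controls were grown on 1% Geltrex-coated 384-well plates and exposed by pin tool to a 10-point threefold dilution series (mean top concentration 35 μM), in triplicate. Exposure was 7 days (iAstro 3 days) at 37 °C, 5% CO2. CellTiter-Glo luminescence was log2-transformed, normalised per plate to % activity between negative (solvent) and positive control wells, and pooled. EC50 and maximal response (yFin) come from the lowest-AICc three- or four-parameter log-logistic fit.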

DIPGX37 [2] = H3.3 K27M diffuse intrinsic pontine glioma line; experiment: as above
Procedure, shortened: as §1

DIPGX9 [3] = diffuse intrinsic pontine glioma line; experiment: as above
Procedure, shortened: as §1

HABS [4] = astrocyte control; experiment: as above
Procedure, shortened: as §1

HGGX2 [5] = paediatric high-grade glioma line; experiment: as above
Procedure, shortened: as §1

HGGX39 [6] = paediatric high-grade glioma line; experiment: as above
Procedure, shortened: as §1

HGGX42 [7] = H3.3 G34R paediatric high-grade glioma line; experiment: as above
Procedure, shortened: as §1

HGGX6 [8] = H3.3 G34R paediatric high-grade glioma line; experiment: as above
Procedure, shortened: as §1

SUDIPGIV [9] = diffuse intrinsic pontine glioma line; experiment: as above
Procedure, shortened: as §1

SUDIPGXIX [10] = diffuse intrinsic pontine glioma line; experiment: as above
Procedure, shortened: as §1

SUDIPGXVII [11] = diffuse intrinsic pontine glioma line; experiment: as above
Procedure, shortened: as §1

SUDIPGXXI [12] = diffuse intrinsic pontine glioma line; experiment: as above
Procedure, shortened: as §1

iAstro [13] = astrocyte control; experiment: as above
Procedure, shortened: as §1

DIPGX29 [14] = experiment: maximal growth inhibition (yFin) relative to DMSO / staurosporine; higher = more efficacious
Procedure, shortened: as §1

DIPGX37 [15] = experiment: as above
Procedure, shortened: as §1

DIPGX9 [16] = experiment: as above
Procedure, shortened: as §1

HABS [17] = experiment: as above
Procedure, shortened: as §1

HGGX2 [18] = experiment: as above
Procedure, shortened: as §1

HGGX39 [19] = experiment: as above
Procedure, shortened: as §1

HGGX42 [20] = experiment: as above
Procedure, shortened: as §1

HGGX6 [21] = experiment: as above
Procedure, shortened: as §1

SUDIPGIV [22] = experiment: as above
Procedure, shortened: as §1

SUDIPGXIX [23] = experiment: as above
Procedure, shortened: as §1

SUDIPGXVII [24] = experiment: as above
Procedure, shortened: as §1

SUDIPGXXI [25] = experiment: as above
Procedure, shortened: as §1

iAstro [26] = experiment: as above
Procedure, shortened: as §1

DIPGX29 [27] = experiment: area under dose-response curve of % growth inhibition (log2 RLU vs DMSO / staurosporine), 1e-11 to 1e-4 M (% x log10 M); higher = more growth inhibition
Procedure, shortened: (§2)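 On 1% Geltrex-coated 384-well plates, patient-derived pHGG/DIPG cell lines and astrocytes were treated in triplicate across 10 threefold dilutions (mean top concentration 35 μM) for 7 days, with iAstro treated for 3 days, at 37 °C, 5% CO2. Log2-transformed CellTiter-Glo luminescence was normalised per plate to % activity between solvent and positive controls. Area under the curve was obtained by the trapezoid rule from a log-logistic fit, or from a smoothing spline when that fit failed.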

DIPGX37 [28] = experiment: as above
Procedure, shortened: as §2

DIPGX7 = H3.3 K27M diffuse intrinsic pontine glioma line; experiment: as above
Procedure, shortened: as §2

DIPGX9 [29] = experiment: as above
Procedure, shortened: as §2

HABS [30] = experiment: as above
Procedure, shortened: as §2

HGGX2 [31] = experiment: as above
Procedure, shortened: as §2

HGGX39 [32] = experiment: as above
Procedure, shortened: as §2

HGGX42 [33] = experiment: as above
Procedure, shortened: as §2

HGGX6 [34] = experiment: as above
Procedure, shortened: as §2

SUDIPGIV [35] = experiment: as above
Procedure, shortened: as §2

SUDIPGVI = diffuse intrinsic pontine glioma line; experiment: as above
Procedure, shortened: as §2

SUDIPGXIII = diffuse intrinsic pontine glioma line; experiment: as above
Procedure, shortened: as §2

SUDIPGXIX [36] = experiment: as above
Procedure, shortened: as §2

SUDIPGXVII [37] = experiment: as above
Procedure, shortened: as §2

SUDIPGXXI [38] = experiment: as above
Procedure, shortened: as §2

iAstro [39] = experiment: as above
Procedure, shortened: as §2

NC(=O)Nc1sc(-c2ccc(F)cc2)cc1C(N)=O [TPCA-1]
EC50 (log10 M) (DIPGX29 [1]): -4.75 | EC50 (log10 M) (DIPGX37 [2]): -4.8 | EC50 (log10 M) (DIPGX9 [3]): -4.8 | EC50 (log10 M) (HABS [4]): -4.95 | EC50 (log10 M) (HGGX2 [5]): -4.67 | EC50 (log10 M) (HGGX39 [6]): -4.79 | EC50 (log10 M) (HGGX42 [7]): -5.23 | EC50 (log10 M) (HGGX6 [8]): -5.19 | EC50 (log10 M) (SUDIPGIV [9]): -4.55 | EC50 (log10 M) (SUDIPGXIX [10]): -4.66 | EC50 (log10 M) (SUDIPGXVII [11]): -4.74 | EC50 (log10 M) (SUDIPGXXI [12]): -4.81 | EC50 (log10 M) (iAstro [13]): -4.76 | maximal growth inhibition (DIPGX29 [14]): 35.9% | maximal growth inhibition (DIPGX37 [15]): 38.5% | maximal growth inhibition (DIPGX9 [16]): 36.9% | maximal growth inhibition (HABS [17]): 33.8% | maximal growth inhibition (HGGX2 [18]): 36.3% | maximal growth inhibition (HGGX39 [19]): 27.7% | maximal growth inhibition (HGGX42 [20]): 24.8% | maximal growth inhibition (HGGX6 [21]): 22.5% | maximal growth inhibition (SUDIPGIV [22]): 21.9% | maximal growth inhibition (SUDIPGXIX [23]): 58.5% | maximal growth inhibition (SUDIPGXVII [24]): 20.7% | maximal growth inhibition (SUDIPGXXI [25]): 122% | maximal growth inhibition (iAstro [26]): 24.4% | area under dose-response curve (DIPGX29 [27]): 26.8 | area under dose-response curve (DIPGX37 [28]): 30.6 | area under dose-response curve (DIPGX7): 11.3 | area under dose-response curve (DIPGX9 [29]): 29.4 | area under dose-response curve (HABS [30]): 32.4 | area under dose-response curve (HGGX2 [31]): 23.3 | area under dose-response curve (HGGX39 [32]): 21.9 | area under dose-response curve (HGGX42 [33]): 30.8 | area under dose-response curve (HGGX6 [34]): 26.9 | area under dose-response curve (SUDIPGIV [35]): 12 | area under dose-response curve (SUDIPGVI): 6.26 | area under dose-response curve (SUDIPGXIII): 3.37 | area under dose-response curve (SUDIPGXIX [36]): 39.2 | area under dose-response curve (SUDIPGXVII [37]): 15.2 | area under dose-response curve (SUDIPGXXI [38]): 99.3 | area under dose-response curve (iAstro [39]): 18.2

CC1=C(/C=C/C(C)=C/C=C/C(C)=C/C(=O)O)C(C)(C)CCC1 [TRETINON]
EC50 (log10 M) (HGGX2 [5]): -6.92 | EC50 (log10 M) (SUDIPGXXI [12]): -7.13 | maximal growth inhibition (HGGX2 [18]): 24.3% | maximal growth inhibition (SUDIPGXXI [25]): 94.3% | area under dose-response curve (DIPGX29 [27]): 40.4 | area under dose-response curve (DIPGX37 [28]): 46.7 | area under dose-response curve (DIPGX7): 16.1 | area under dose-response curve (DIPGX9 [29]): 97.5 | area under dose-response curve (HABS [30]): 0 | area under dose-response curve (HGGX2 [31]): 71.1 | area under dose-response curve (HGGX39 [32]): 42.5 | area under dose-response curve (HGGX42 [33]): 28.5 | area under dose-response curve (HGGX6 [34]): 27.5 | area under dose-response curve (SUDIPGIV [35]): 44.1 | area under dose-response curve (SUDIPGVI): 22 | area under dose-response curve (SUDIPGXIII): 0 | area under dose-response curve (SUDIPGXIX [36]): 14.9 | area under dose-response curve (SUDIPGXVII [37]): 19.9 | area under dose-response curve (SUDIPGXXI [38]): 296 | area under dose-response curve (iAstro [39]): 14.6
